Data as given in US6825170B2, “6-O-acyl ketolide antibacterials” (Ortho-McNeil Pharmaceutical, Inc., priority 2001, dated 2004).
≈ marks a conversion by molar mass, not a printed value.

Tests used:
Test in all cases: MIC, microdilution broth method (NCCLS)
Type in all cases: cell-based
Settings in all cases: 35° C., 16-20 hours
E. faecalis ATCC29212 = test system: E. faecalis ATCC29212
Description: (§1) Minimal inhibitory concentration (MIC) has been an indicator of in vitro antibacterial activity widely used in the art. The in vitro antimicrobial activity of the compounds was determined by the microdilution broth method following the test method from the National Committee for Clinical Laboratory Standards (NCCLS). This method is described in the NCCLS Document M7-A4, Vol.17, No.2, “Methods for Dilution Antimicrobial Susceptibility Test for Bacteria that Grow Aerobically—Fourth Edition”, which is incorporated herein by reference.
(§2) In this method two-fold serial dilutions of drug in cation adjusted Mueller-Hinton broth are added to wells in microdilution trays. The test organisms are prepared by adjusting the turbidity of actively growing broth cultures so that the final concentration of test organism after it is added to the wells is approximately 5×10^4 CFU/well.
(§3) Following inoculation of the microdilution trays, the trays are incubated at 35° C. for 16-20 hours and then read. […] The amount of growth in the wells containing the test compound is compared with the amount of growth in the growth-control wells (no test compound) used in each tray. As set forth in Table 1, compounds of the present invention were tested against a variety of Gram positive and Gram negative pathogenic bacteria resulting in a range of activities depending on the organism tested.

H. influenzae ATCC49247 = test system: H. influenzae ATCC49247
Description: as §1, §2, §3

S. aureus ATCC29213 = test system: S. aureus ATCC29213
Description: as §1, §2, §3

S. pneumoniae ATCC49619 = test system: S. pneumoniae ATCC49619
Description: as §1, §2, §3

| Structure (SMILES) | MIC (C: E. faecalis ATCC29212) (E. faecalis ATCC29212) [µg/mL] | MIC (E: H. influenzae ATCC49247) (H. influenzae ATCC49247) [µg/mL] | MIC (B: S. aureus ATCC29213) (S. aureus ATCC29213) [µg/mL] | MIC (D: S. pneumoniae ATCC49619) (S. pneumoniae ATCC49619) |
| --- | --- | --- | --- | --- |
| CCC1OC(=O)C(C)C(=O)C(C)C(OC2OC(C)CC(N(C)C)C2O)C(C)(OC(=O)OCC=Cc2ccc(-c3ccc(C)nn3)cc2)CC(C)C(=O)C(C)C2NC(=O)OC12C (centres unmarked) [Compound 61] | 0.12 (≈ 0.141 µM) | 1 (≈ 1.18 µM) | 0.12 (≈ 0.141 µM) | 0.03 µg/mL (≈ 0.0353 µM) |
| CCC1OC(=O)C(C)C(=O)C(C)C(OC2OC(C)CC(N(C)C)C2O)C(C)(OC(=O)OCC=Cc2ccc(-c3ccccn3)s2)CC(C)C(=O)C(C)C2NC(=O)OC12C (centres unmarked) [Compound 63] | 0.12 (≈ 0.143 µM) | 1 (≈ 1.19 µM) | 0.25 (≈ 0.297 µM) | 0.06 µg/mL (≈ 0.0713 µM) |
| CCC1OC(=O)C(C)C(=O)C(C)C(OC2OC(C)CC(N(C)C)C2O)C(C)(OC(=O)OCC=Cc2ccc(-c3ncccn3)s2)CC(C)C(=O)C(C)C2NC(=O)OC12C (centres unmarked) [Compound 64] | 0.06 (≈ 0.0712 µM) | 1 (≈ 1.19 µM) | 0.12 (≈ 0.142 µM) | 0.03 µg/mL (≈ 0.0356 µM) |
| CCC1OC(=O)C(C)C(=O)C(C)C(OC2OC(C)CC(N(C)C)C2O)C(C)(OC(=O)OCC=Cc2ccc(-c3cnccn3)s2)CC(C)C(=O)C(C)C2NC(=O)OC12C (centres unmarked) [Compound 65] | 0.12 (≈ 0.142 µM) | 1 (≈ 1.19 µM) | 0.25 (≈ 0.297 µM) | 0.03 µg/mL (≈ 0.0356 µM) |
| CCC1OC(=O)C(C)C(=O)C(C)C(OC2OC(C)CC(N(C)C)C2O)C(C)(OC(=O)OCC=Cc2cnc(-c3ccccc3)nc2)CC(C)C(=O)C(C)C2NC(=O)OC12C (centres unmarked) [Compound 72] | 0.06 (≈ 0.0717 µM) | 2 (≈ 2.39 µM) | 0.25 (≈ 0.299 µM) | 0.03 µg/mL (≈ 0.0358 µM) |
| CCC1OC(=O)C(C)C(=O)C(C)C(OC2OC(C)CC(N(C)C)C2O)C(C)(OC(=O)OCC=Cc2ccc(-c3cccs3)s2)CC(C)C(=O)C(C)C2NC(=O)OC12C (centres unmarked) [Compound 73] | 1 (≈ 1.18 µM) | 16 (≈ 18.9 µM) | 2 (≈ 2.36 µM) | 0.25 µg/mL (≈ 0.295 µM) |
| CCC1OC(=O)C(C)C(=O)C(C)C(OC2OC(C)CC(N(C)C)C2O)C(C)(OC(=O)OCC=C(C)c2ccc(-c3ncccn3)cc2)CC(C)C(=O)C(C)C2NC(=O)OC12C (centres unmarked) [Compound 76] | 0.12 (≈ 0.141 µM) | 1 (≈ 1.18 µM) | 0.25 (≈ 0.294 µM) | 0.03 µg/mL (≈ 0.0353 µM) |
| CCC1OC(=O)C(C)C(=O)C(C)C(OC2OC(C)CC(N(C)C)C2O)C(C)(OC(=O)OCC#Cc2cc(-c3ccccn3)no2)CC(C)C(=O)C(C)C2NC(=O)OC12C (centres unmarked) [Compound 122] | 0.06 (≈ 0.0727 µM) | 1 (≈ 1.21 µM) | 0.12 (≈ 0.145 µM) | ≦0.015 μg/mL |
| CCC1OC(=O)C(C)C(=O)C(C)C(OC2OC(C)CC(N(C)C)C2O)C(C)(OC(=O)OCCC#Cc2ccc(-c3ncccn3)cc2)CC(C)C(=O)C(C)C2NC(=O)OC12C (centres unmarked) [Compound 137] | 0.12 (≈ 0.141 µM) | 4 (≈ 4.71 µM) | 0.25 (≈ 0.294 µM) | 0.03 µg/mL (≈ 0.0353 µM) |
| CCC1OC(=O)C(C)C(=O)C(C)C(OC2OC(C)CC(N(C)C)C2O)C(C)(OC(=O)OCCCn2cnc3ccccc32)CC(C)C(=O)C(C)C2NC(=O)OC12C (centres unmarked) [Compound 159] | 0.12 (≈ 0.15 µM) | 1 (≈ 1.25 µM) | 0.25 (≈ 0.312 µM) | 0.03 µg/mL (≈ 0.0375 µM) |
| CCC1OC(=O)C(C)C(=O)C(C)C(OC2OC(C)CC(N(C)C)C2O)C(C)(OC(=O)OCC(F)=Cc2ccc(-c3ncccn3)cc2)CC(C)C(=O)C(C)C2NC(=O)OC12C (centres unmarked) [Compound 160] | 0.06 (≈ 0.0702 µM) | 1 (≈ 1.17 µM) | 0.12 (≈ 0.14 µM) | 0.03 µg/mL (≈ 0.0351 µM) |
